From patent US20170009228A1, “BIOLOGICAL MATERIALS AND THERAPEUTIC USES THEREOF” (IMPERIAL INNOVATIONS LIMITED, priority 2014, published 2017)

Columns and labels:
IL-1 = assay: Addition of IL-1 receptor antagonist before FBG stimulation; format: cell-based; details: 10 μg/ml IL1 receptor antagonist, data not shown
Procedure: (§1) Where stated, cells were pre-incubated with 10 μg/ml anti-CD14 antibody, 10 μg/ml IL1 receptor antagonist, 10 μg/ml anti-TLR2 antibody, 25 μg/ml anti-TLR4 antibody, 10 or 25 μg/ml isotype control antibody, 25 μg/ml polymyxin B, or 1 μg/ml msbB LPS, for 30 minutes at 37° C. before stimulation. Where stated, recombinant tenascin-C and FBG, and LPS were boiled for 15 minutes before addition to cells
(§2) Supernatants were subsequently examined for the presence of the cytokines TNF-α, IL-6, and IL-8 by enzyme-linked immunosorbent assay (ELISA) according to the manufacturer's instructions. Absorbance was read on a spectrophotometric ELISA plate reader (Labsystems Multiscan Biochromic, Vantaa, Finland) and analyzed using the Ascent software program (Thermo Labsystems, Altrincham, UK).

[1] = tested on: primary human macrophages; assay: Cytokine synthesis in primary human macrophages stimulated with tenascin-C or its domains; format: cell-based
Procedure: Human monocytes were isolated from peripheral blood (London Blood Bank) and macrophages were derived from monocytes after differentiation for 4 days with 100 ng/ml of M-CSF as previously described (Foxwell (1998)).
(§3) Immediately after isolation, RA membrane cells and macrophages were cultured at 1×10^5 cells/well in RPMI 1640 containing 10% (v/v) FBS and 100 U/ml (Units/ml) penicillin/streptomycin in 96-well tissue culture plates for 24 hours before stimulation. Synovial fibroblasts (used only at either passage number 2 or 3) were cultured at 1×10^4 cells/well in DMEM containing 10% (v/v) FBS and 100 U/ml penicillin/streptomycin in 96-well tissue culture plates for 24 hours before stimulation.
(§4) Cells were incubated for 24 hours at 37° C. with the indicated doses of tenascin-C and recombinant tenascin-C fragments (1.0 μM-1.0 nM). Cells were also stimulated where indicated with LPS (1 ng/ml for human macrophages, 10 ng/ml for human fibroblasts, RA membrane cells and HEKs, 100 ng/ml for MEFS and BMDMs and 10 ng/ml for HEKS), PAM3 (10 ng/ml for human macrophages, human fibroblasts, and HEKs, 100 ng/ml for MEFs and BMDMs), murine IL-1 (5 ng/ml for MEFS) and murine TNF-α (100 ng/ml for MEFS). Unless specifically stated otherwise rough LPS was used for in vitro studies.
as §1, §2

RA synovial fibroblasts = assay: Cytokine synthesis in RA synovial fibroblasts stimulated with tenascin-C, FBG or LPS; format: cell-based, human
Source text: RA membrane cells (representing a mixed population of all synovial cell types) were isolated from synovial membranes obtained from patients undergoing joint replacement surgery as previously described (Brennan (1989)). RA synovial fibroblasts were isolated from the mixed population of RA membrane cells as previously described (Brennan (1989)). The study was approved by the local Trust ethics committee (Riverside NHS Research Committee), and waste tissue (synovium after joint replacement surgery) was obtained only after receiving signed informed consent from the patient and anonymyzing the tissue to protect patient identity.
as §3, §4, §2

serum from RA patients = assay: Western blot of citrullinated tenascin-C probed with serum from RA patients or healthy controls; format: binding, human; details: sera from RA patients or normal healthy controls, not shown
Procedure: SDS PAGE of Citrullinated Proteins 33.33 ul of citrullination reaction (cit-TNC alone or cit-TNC combined with cit-FBG) was loaded into NuPAGE® Novex 4-12% Bis-tris gel using a 1.0 mm 2D single lane well.
After electrophoresis proteins were transferred to nitrocellulose and the membrane blocked and then cut into strips (up to 8 strips ˜0.7 cm wide). Strips were incubated with serum from RA patients or normal healthy individuals diluted 1:100 in 5% milk TBS-tween. Strips were incubated in 15 ml falcon tubes on rollers 1 h room temperature, then washed 3 ×5 min, 1×15 min in tubes with TBS-Tween. Strips were then incubated with secondary mouse anti-human Ig 1:5000 1 h in room temperature, then washed 3×5 min, 1×15 min in the dish with TBS-tween. Strips were finally incubated with ECL reagents and exposed to film.

FBG induction of cytokines (IL-1)	Substance	heat and polymyxin B sensitivity of cytokine stimulation ([1]; boiled 15 min, 25 μg/ml polymyxin B pre-incubation)	production of TNF-α, IL-6 and IL-8 ([1]; human macrophages, 24 h, 1.0 μM-1.0 nM)	IL-6 synthesis (RA synovial fibroblasts; RA synovial fibroblasts, 24 h)	TNF-α synthesis (RA synovial fibroblasts; fibroblasts, data not shown)	reactivity with sera in blots (serum from RA patients)
did not inhibit	IL-1 receptor antagonist: IL-1 receptor antagonist from R&D Systems					
	tenascin-C: recombinant full-length human tenascin-C purified from HEK293 conditioned medium	heat sensitive and unaffected by the LPS inhibitor, polymyxin B	dose dependently stimulated	only induced IL-6 synthesis	Neither LPS nor tenascin-C induced TNF-α synthesis	No reactivity
